Test results as given in ChEMBL document CHEMBL4190299, “Design, Synthesis, and Cancer Cell Growth Inhibitory Activity of Triphenylphosphonium Derivatives of the Triterpenoid Betulin” (J Nat Prod, 2017).
Active and inactive are the calls of the source. The rule behind the calls is not given here.

Key:
PC-3 [1] = assay: Cytotoxicity against human PC3 cells assessed as reduction in cell viability after 72 hrs by MTT assay; assay type: functional, cell-based; settings: PC-3, 72 h
[2] = Cytotoxicity against human HSF cells assessed as reduction in cell viability after 72 hrs by MTT assay; assay type: cell-based
MCF7 = assay: cells; settings: Homo sapiens, MCF7, 72 h
Description: Cytotoxicity against human MCF7 cells assessed as reduction in cell viability after 72 hrs by MTT assay

PC-3 [3] = assay: Induction of cell cycle arrest in human PC3 cells assessed as effect on G0/G1 phase at cytotoxic IC50 after 48 hrs by propidium iodide staining based flow cytometry; assay type: functional
PC-3 [4] = assay: Induction of cell cycle arrest in human PC3 cells assessed as effect on S phase at cytotoxic IC50 after 48 hrs by propidium iodide staining based flow cytometry; assay type: functional
PC-3 [5] = assay: Induction of cell cycle arrest in human PC3 cells assessed as effect on G2/M phase at cytotoxic IC50 after 48 hrs by propidium iodide staining based flow cytometry; assay type: functional
PC-3 [6] = assay: Induction of mitochondrial membrane potential loss in human PC3 cells assessed as fluorescence intensity at cytotoxic IC50 after 48 hrs by TMRE dye-based fluorescence assay based flow cytometry (reference value: 210.8); assay type: functional
PC-3 [7] = assay: Induction of mitochondrial membrane potential loss in human PC3 cells assessed as fluorescence intensity at cytotoxic IC50 after 48 hrs by TMRE dye-based fluorescence assay based flow cytometry relative to untreated control; assay type: functional

SMILES	IC50 (PC-3 [1])	IC50 [2]	IC50 (MCF7)	Activity (PC-3 [3])	Activity (PC-3 [4])	Activity (PC-3 [5])	Flu intensity (PC-3 [6])	fold change (FC) (PC-3 [7])	Activity (PC-3 [7])
C=C(C)[C@@H]1CC[C@]2(COC(=O)CCC[P+](c3ccccc3)(c3ccccc3)c3ccccc3)CC[C@]3(C)[C@H](CC[C@@H]4[C@@]5(C)CC[C@H](O)C(C)(C)[C@@H]5CC[C@]43C)[C@@H]12	160 nM	2100 nM	430 nM	–	–	–	–	–	–
C=C(C)[C@@H]1CC[C@]2(COC(=O)CCCC[P+](c3ccccc3)(c3ccccc3)c3ccccc3)CC[C@]3(C)[C@H](CC[C@@H]4[C@@]5(C)CC[C@H](OC(=O)CCCC[P+](c6ccccc6)(c6ccccc6)c6ccccc6)C(C)(C)[C@@H]5CC[C@]43C)[C@@H]12.[Br-].[Br-]	470 nM	760 nM	480 nM	inactive	inactive	inactive	112.2	2	–
C=C(C)[C@@H]1CC[C@]2(COC(=O)CCCCBr)CC[C@]3(C)[C@H](CC[C@@H]4[C@@]5(C)CC[C@H](OC(=O)CCCCBr)C(C)(C)[C@@H]5CC[C@]43C)[C@@H]12	–	–	–	inactive	inactive	inactive	187.9	–	10%
CC[C@]1(O)C[C@@H]2CN(CCc3c([nH]c4ccccc34)[C@@](C(=O)OC)(c3cc4c(cc3OC)N(C)[C@H]3[C@@](O)(C(=O)OC)[C@H](OC(C)=O)[C@]5(CC)C=CCN6CC[C@]43[C@@H]65)C2)C1 [VINBLASTINE]	–	–	500 nM	–	–	–	–	–	–
C=C(C)[C@@H]1CC[C@]2(COC(=O)CCC[P+](c3ccccc3)(c3ccccc3)c3ccccc3)CC[C@]3(C)[C@H](CC[C@@H]4[C@@]5(C)CC[C@H](OC(=O)CCC[P+](c6ccccc6)(c6ccccc6)c6ccccc6)C(C)(C)[C@@H]5CC[C@]43C)[C@@H]12.[Br-].[Br-]	540 nM	860 nM	350 nM	inactive	inactive	inactive	90.1	2	–
COc1cccc2c1C(=O)c1c(O)c3c(c(O)c1C2=O)C[C@@](O)(C(=O)CO)C[C@@H]3O[C@H]1C[C@H](N)[C@H](O)[C@H](C)O1 [DOXORUBICIN]	–	–	150 nM	–	–	–	–	–	–
C=C(C)[C@@H]1CC[C@]2(COC(=O)C[P+](c3ccccc3)(c3ccccc3)c3ccccc3)CC[C@]3(C)[C@H](CC[C@@H]4[C@@]5(C)CC[C@H](OC(=O)C[P+](c6ccccc6)(c6ccccc6)c6ccccc6)C(C)(C)[C@@H]5CC[C@]43C)[C@@H]12	6900 nM	5600 nM	8700 nM	–	–	–	–	–	–
C=C(C)[C@@H]1CC[C@]2(CO)CC[C@]3(C)[C@H](CC[C@@H]4[C@@]5(C)CC[C@H](O)C(C)(C)[C@@H]5CC[C@]43C)[C@@H]12 [BETULIN]	–	–	–	inactive	inactive	inactive	205.9	–	–
C=C(C)[C@@H]1CC[C@]2(COC(=O)CCCC[P+](c3ccccc3)(c3ccccc3)c3ccccc3)CC[C@]3(C)[C@H](CC[C@@H]4[C@@]5(C)CC[C@H](O)C(C)(C)[C@@H]5CC[C@]43C)[C@@H]12.[Br-]	120 nM	1500 nM	700 nM	inactive	inactive	inactive	186.6	–	–
C=C(C)[C@@H]1CC[C@]2(COC(=O)C[P+](c3ccccc3)(c3ccccc3)c3ccccc3)CC[C@]3(C)[C@H](CC[C@@H]4[C@@]5(C)CC[C@H](O)C(C)(C)[C@@H]5CC[C@]43C)[C@@H]12	6800 nM	9900 nM	> 10000 nM	–	–	–	–	–	–
